By IC50 is commonly meant the concentration that inhibits the measured activity by half.

The results in this text go back to ChEMBL document CHEMBL5244214, “An update on small molecule strategies targeting leishmaniasis” (Eur J Med Chem, 2018).

Data set [1] deals with Leishmania major. In words: Antileishmanial activity against Leishmania major MRHO/IR/75/E promastigotes assessed as parasite growth inhibition incubated for 24 hrs by MTT assay. In kind it is functional, organism-based. Background: Tetrazolium dyes change colour on reduction, which living cells bring about.
Data set [2] can be described thus: Cytotoxicity against mouse peritoneal macrophages assessed as reduction in cell viability incubated for 24 hrs by MTT assay. In kind it is toxicity, cell-based, Peritoneal macrophage.
The test system of a further data set is Leishmania donovani. In words: Antileishmanial activity against Leishmania donovani promastigotes assessed as parasite growth inhibition. In kind it is functional, organism-based.
The subject of data set [3] is Leishmania major. In words: Antileishmanial activity against Leishmania major assessed as inhibition of parasite growth. It counts as functional, organism-based.
Data set [4] has as its system Leishmania aethiopica. In words: Antileishmanial activity against Leishmania aethiopica promastigotes assessed as parasite growth inhibition incubated for 24 hrs by alamar blue staining based analysis. It counts as functional, organism-based. For orientation: The colour change of resazurin is a common sign of viable cells or microbes.
Data set [5] has as its system Leishmania aethiopica. Kind of data set: Antileishmanial activity against Leishmania aethiopica axenic amastigotes assessed as parasite growth inhibition incubated for 72 hrs by resazurin staining based analysis. It counts as functional, organism-based.
The test system of data set [6] is Leishmania major. In words: Antileishmanial activity against Leishmania major promastigotes assessed as parasite growth inhibition at 100 uM incubated for 72 hrs by MTT assay. Conditions: read-out: GI. In kind it is functional.
Data set [7] has as its system Leishmania major. In words: Antileishmanial activity against Leishmania major promastigotes assessed as parasite growth inhibition at 10 uM incubated for 72 hrs by MTT assay. In kind it is functional. Conditions: read-out: GI.
Data set [8] concerns Leishmania major. Kind of data set: Antileishmanial activity against Leishmania major promastigotes assessed as parasite growth inhibition at 1 uM incubated for 72 hrs by MTT assay. Conditions: read-out: GI. It counts as functional.
Data set [9] has as its system Leishmania major. In words: Antileishmanial activity against Leishmania major promastigotes assessed as parasite growth inhibition at 0.1 uM incubated for 72 hrs by MTT assay. It counts as functional. Conditions: read-out: GI.

With `CCCNC(=O)CSc1nnc(-c2ccc([N+](=O)[O-])o2)s1`, the half-inhibitory concentration (IC50) in the data set on Leishmania major [1] was 19.5 µM. For the same molecule, the half-inhibitory concentration (IC50) at 24 h in data set [2] amounted to 59.7 µM. For `O=C(CSc1nnc(-c2ccc([N+](=O)[O-])o2)s1)NCc1ccccc1`, in that order: 46.7 µM and 86.9 µM. `O=c1oc2ccccc2c(O)c1C(c1ccoc1)N1CCOCC1` (stereo unspecified): the half-inhibitory concentration (IC50) in the data set with Leishmania donovani amounted to 14.7 µM.

On to `COCCCNc1nnc(-c2ccc([N+](=O)[O-])s2)s1`, for which the IC50 in the data set with Leishmania major [3] turned out to be 3 µM.

For `CN1CCN(C(c2c(O)c3ccccc3oc2=O)c2c[nH]c3ccccc23)CC1` (stereo unspecified), in the data set with Leishmania donovani, the 50% inhibitory concentration (IC50) came out at 13.1 µM.

In the case of `Cc1cccc2cc(C(c3c(O)c4ccccc4oc3=O)N3CCN(C)CC3)c(Cl)nc12` (stereo unspecified), the half-inhibitory concentration (IC50) in the data set with Leishmania donovani is 6.9 µM. For the molecule `COc1ccc(CCNC(=O)CSc2nnc(-c3ccc([N+](=O)[O-])o3)s2)cc1OC`, the half-maximal inhibitory concentration (IC50) in the data set with Leishmania major [1] was 19.1 µM. The half-maximal inhibitory concentration (IC50) at 24 h in data set [2] stood at 56 µM.

Regarding `COc1nc(OC)nc(N(CC(=O)[C@@H](N)C(C)C)CC(=O)[C@@H](N)C(C)C)n1`, the concentration for half-maximal inhibition (IC50) in the data set with Leishmania aethiopica [4] came out at 1.4 µM; in the data set with Leishmania aethiopica [5], 0.22 µM. Turning to `O=[N+]([O-])c1ccc(-c2nnc(NCCCO)s2)s1`, in the data set on Leishmania major [3], the concentration for half-maximal inhibition (IC50) turned out to be 3 µM. Regarding `COc1ccc(NC(=O)CCC(=O)O)c([N+](=O)[O-])c1`, in the data set with Leishmania major [6], the inhibition of growth at 100 µM was 56.8%. The inhibition of growth at 10 µM in the data set with Leishmania major [7] came to 50.4%. Moreover, the inhibition of growth at 1 µM with Leishmania major [8] was found to be 45.5%. In addition, the inhibition of growth at 0.1 µM with Leishmania major [9] came to 59.3%.

Regarding `C[C@@H]1[C@H](O)[C@@H](C)/C=C/C=C/C=C/C=C/C=C/C=C/C=C/[C@H](O[C@@H]2O[C@H](C)[C@@H](O)[C@H](N)[C@@H]2O)C[C@@H]2O[C@](O)(C[C@@H](O)C[C@@H](O)[C@H](O)CC[C@@H](O)C[C@@H](O)CC(=O)O[C@H]1C)C[C@H](O)[C@H]2C(=O)O` [AMPHOTERICIN B], in the data set with Leishmania major [6], the inhibition of growth at 100 µM was 79.8%. Also, in the data set on Leishmania major [7], the inhibition of growth at 10 µM amounted to 76.3%. The inhibition of growth at 1 µM with Leishmania major [8] was 74.8%. In the data set with Leishmania major [9], the inhibition of growth at 0.1 µM was found to be 69.8%.
